The values below are quoted from earlier work in US20210330900A1, “TARGETED ADMINISTRATION TO THE OROPHARYNX OF VISCOUS OR DRY POWDER FLUTICASONE PROPIONATE AND RELATED CORTICOSTEROIDS FOR THE TREATMENT OF EOSINOPHILIC ESOPHAGITIS (EoE)” (Topical Sinus Therapeutics, Inc., priority 2020, published 2021).

In the case of `C[C@@H]1C[C@H]2[C@@H]3C[C@H](F)C4=CC(=O)C=C[C@]4(C)[C@@]3(F)[C@@H](O)C[C@]2(C)[C@@]1(O)C(=O)SCF` [Fluticasone], the gastrointestinal absorption entry (compared with other corticosteroids) was “exceptionally low”. The “drug inactivated by 1st pass hepatic metabolism” value (into a single inactive metabolite, after gastrointestinal absorption) was 99%.
